From ChEMBL document CHEMBL1221208, “ATP-competitive inhibitors of the mitotic kinesin KSP that function via an allosteric mechanism” (Nat Chem Biol, 2007)
Calls of active or inactive are those of the source. No cut-off for these calls is given here.

How the values were obtained:
[1] = molecular target: T1, Kinesin-like protein KIF11 (Homo sapiens) (UniProt P52732); test: Inhibition of Eg5 at 10 uM by puruvate kinsase-lactate dehydrogenase detection system
T1 sequence (whole entry): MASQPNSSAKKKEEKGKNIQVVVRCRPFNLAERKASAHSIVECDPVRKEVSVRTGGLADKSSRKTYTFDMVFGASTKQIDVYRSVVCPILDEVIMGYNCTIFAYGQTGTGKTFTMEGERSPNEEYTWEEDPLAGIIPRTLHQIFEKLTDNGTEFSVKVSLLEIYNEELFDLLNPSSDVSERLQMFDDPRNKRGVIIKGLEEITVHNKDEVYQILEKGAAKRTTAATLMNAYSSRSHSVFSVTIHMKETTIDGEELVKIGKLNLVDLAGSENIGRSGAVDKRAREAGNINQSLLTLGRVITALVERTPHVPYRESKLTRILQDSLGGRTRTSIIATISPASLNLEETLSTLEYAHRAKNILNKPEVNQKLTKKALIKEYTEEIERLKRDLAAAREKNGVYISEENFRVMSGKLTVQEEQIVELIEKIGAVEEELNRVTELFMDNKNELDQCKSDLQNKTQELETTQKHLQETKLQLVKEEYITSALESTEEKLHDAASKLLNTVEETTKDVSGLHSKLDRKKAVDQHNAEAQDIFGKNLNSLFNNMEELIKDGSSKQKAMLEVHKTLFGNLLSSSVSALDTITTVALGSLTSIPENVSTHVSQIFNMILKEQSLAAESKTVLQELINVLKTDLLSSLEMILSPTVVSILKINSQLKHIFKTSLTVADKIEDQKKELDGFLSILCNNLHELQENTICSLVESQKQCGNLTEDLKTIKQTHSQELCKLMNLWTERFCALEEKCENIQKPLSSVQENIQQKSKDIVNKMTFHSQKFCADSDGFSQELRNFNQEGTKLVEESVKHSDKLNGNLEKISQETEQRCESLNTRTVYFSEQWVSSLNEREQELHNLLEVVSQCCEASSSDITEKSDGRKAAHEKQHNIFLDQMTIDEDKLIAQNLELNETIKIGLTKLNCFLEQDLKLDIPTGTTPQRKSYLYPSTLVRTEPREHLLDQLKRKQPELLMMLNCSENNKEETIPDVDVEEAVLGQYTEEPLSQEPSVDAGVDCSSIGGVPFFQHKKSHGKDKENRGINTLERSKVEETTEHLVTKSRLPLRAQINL

[2] = molecular target: T2, Chromosome-associated kinesin KIF4A (Homo sapiens) (UniProt O95239); test: Inhibition of Kif4 at 10 uM by puruvate kinsase-lactate dehydrogenase detection system
T2 sequence (whole entry): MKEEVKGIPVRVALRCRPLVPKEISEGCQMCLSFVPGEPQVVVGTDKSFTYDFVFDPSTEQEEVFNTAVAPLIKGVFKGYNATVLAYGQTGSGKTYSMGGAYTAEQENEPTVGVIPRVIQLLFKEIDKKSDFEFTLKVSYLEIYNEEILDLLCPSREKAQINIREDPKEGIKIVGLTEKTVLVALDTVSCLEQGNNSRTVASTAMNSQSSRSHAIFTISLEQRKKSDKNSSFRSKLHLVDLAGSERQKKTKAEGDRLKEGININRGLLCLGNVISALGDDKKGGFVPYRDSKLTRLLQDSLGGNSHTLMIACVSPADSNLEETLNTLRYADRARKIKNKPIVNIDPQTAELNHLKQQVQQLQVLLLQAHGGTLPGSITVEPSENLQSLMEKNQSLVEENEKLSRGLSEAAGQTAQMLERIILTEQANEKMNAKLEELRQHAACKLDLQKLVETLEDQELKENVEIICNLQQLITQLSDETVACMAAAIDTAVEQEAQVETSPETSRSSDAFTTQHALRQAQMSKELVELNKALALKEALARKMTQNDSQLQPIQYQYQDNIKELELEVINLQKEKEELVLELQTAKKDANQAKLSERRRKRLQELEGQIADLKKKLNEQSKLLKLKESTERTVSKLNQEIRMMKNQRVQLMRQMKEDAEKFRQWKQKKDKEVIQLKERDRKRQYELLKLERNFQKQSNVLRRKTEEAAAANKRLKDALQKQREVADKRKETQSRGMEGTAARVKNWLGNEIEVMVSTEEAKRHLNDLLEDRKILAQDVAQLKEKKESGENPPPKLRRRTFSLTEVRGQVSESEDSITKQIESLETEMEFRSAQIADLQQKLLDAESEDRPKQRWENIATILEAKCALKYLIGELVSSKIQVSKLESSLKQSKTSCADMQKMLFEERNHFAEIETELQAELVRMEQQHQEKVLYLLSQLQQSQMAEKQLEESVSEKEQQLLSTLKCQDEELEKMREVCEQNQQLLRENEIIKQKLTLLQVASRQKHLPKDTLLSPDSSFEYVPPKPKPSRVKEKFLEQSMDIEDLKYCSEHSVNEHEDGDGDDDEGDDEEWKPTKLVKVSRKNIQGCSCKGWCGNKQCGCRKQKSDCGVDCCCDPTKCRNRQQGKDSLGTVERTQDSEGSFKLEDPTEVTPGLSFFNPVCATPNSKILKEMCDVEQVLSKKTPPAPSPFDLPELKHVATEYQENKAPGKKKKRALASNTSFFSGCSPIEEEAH

[3] = molecular target: Kinesin-like protein KIF1A (Homo sapiens) (UniProt Q12756); test: Inhibition of Kif1A at 10 uM by puruvate kinsase-lactate dehydrogenase detection system
[4] = molecular target: Centromere-associated protein E (Homo sapiens) (UniProt Q02224); test: Inhibition of CENPE at 10 uM by puruvate kinsase-lactate dehydrogenase detection system
Homo sapiens = organism: Homo sapiens; test: Competitive inhibition of human KSP KHC-L5 mutant with respect to ATP using varying ATP levels in presence of saturating levels of microtubule by Lineweaver-Burke plot
[5] = molecular target: Kinesin-like protein KIF11 (Homo sapiens, UniProt P52732, D130V); test: Inhibition of human KSP D130V mutant using varying ATP levels in presence of saturating levels of microtubule by Lineweaver-Burke plot
[6] = molecular target: T1, Kinesin-like protein KIF11 (Homo sapiens); test: Uncompetitive inhibition of human wild type Eg5 with respect to microtubule using varying ATP levels in presence of saturating levels of microtubule by Lineweaver-Burke plot

Sequence of Kinesin-like protein KIF1A (Homo sapiens) (Q12756 whole entry): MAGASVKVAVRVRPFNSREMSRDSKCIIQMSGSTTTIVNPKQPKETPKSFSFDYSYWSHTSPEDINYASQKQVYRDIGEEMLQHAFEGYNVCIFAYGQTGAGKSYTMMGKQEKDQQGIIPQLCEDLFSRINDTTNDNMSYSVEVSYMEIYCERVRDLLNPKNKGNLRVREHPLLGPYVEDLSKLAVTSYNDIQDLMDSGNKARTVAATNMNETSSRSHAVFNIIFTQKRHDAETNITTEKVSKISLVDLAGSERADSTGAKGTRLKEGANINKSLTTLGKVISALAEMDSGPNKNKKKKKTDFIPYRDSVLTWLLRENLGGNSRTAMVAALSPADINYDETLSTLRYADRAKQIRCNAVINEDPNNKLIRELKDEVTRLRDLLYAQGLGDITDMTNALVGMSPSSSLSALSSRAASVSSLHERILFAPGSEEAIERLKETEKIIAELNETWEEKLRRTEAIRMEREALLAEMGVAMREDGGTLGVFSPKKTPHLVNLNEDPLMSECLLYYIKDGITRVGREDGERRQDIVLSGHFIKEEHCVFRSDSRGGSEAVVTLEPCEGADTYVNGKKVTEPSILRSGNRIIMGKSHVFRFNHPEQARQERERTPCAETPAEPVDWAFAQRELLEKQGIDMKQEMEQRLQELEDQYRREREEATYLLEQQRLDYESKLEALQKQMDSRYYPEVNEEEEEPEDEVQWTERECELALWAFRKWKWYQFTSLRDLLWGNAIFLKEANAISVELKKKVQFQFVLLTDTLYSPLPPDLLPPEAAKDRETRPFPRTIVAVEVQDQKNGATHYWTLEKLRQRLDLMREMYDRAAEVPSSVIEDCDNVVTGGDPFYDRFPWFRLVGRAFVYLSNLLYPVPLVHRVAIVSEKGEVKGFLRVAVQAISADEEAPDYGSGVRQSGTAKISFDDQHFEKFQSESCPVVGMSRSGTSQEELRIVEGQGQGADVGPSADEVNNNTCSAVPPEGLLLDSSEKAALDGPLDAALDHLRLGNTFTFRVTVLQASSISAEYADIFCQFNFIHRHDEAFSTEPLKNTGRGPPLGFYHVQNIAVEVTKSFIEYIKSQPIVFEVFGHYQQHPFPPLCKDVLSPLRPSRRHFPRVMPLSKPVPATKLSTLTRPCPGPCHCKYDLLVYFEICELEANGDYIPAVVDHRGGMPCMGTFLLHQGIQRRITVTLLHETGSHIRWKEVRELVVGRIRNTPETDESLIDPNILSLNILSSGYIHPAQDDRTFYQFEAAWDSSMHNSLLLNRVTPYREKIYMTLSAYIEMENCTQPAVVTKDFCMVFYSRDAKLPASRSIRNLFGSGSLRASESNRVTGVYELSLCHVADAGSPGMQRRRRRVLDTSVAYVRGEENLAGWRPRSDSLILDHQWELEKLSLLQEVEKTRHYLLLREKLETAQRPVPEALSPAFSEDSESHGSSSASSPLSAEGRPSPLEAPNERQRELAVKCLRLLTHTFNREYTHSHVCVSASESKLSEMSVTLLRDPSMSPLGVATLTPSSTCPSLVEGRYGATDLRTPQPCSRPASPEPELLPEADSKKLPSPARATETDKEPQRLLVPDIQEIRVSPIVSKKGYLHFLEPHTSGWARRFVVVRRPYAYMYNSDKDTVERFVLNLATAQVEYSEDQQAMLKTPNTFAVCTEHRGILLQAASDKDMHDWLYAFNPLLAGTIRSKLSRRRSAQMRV
Sequence of Centromere-associated protein E (Homo sapiens) (Q02224 whole entry): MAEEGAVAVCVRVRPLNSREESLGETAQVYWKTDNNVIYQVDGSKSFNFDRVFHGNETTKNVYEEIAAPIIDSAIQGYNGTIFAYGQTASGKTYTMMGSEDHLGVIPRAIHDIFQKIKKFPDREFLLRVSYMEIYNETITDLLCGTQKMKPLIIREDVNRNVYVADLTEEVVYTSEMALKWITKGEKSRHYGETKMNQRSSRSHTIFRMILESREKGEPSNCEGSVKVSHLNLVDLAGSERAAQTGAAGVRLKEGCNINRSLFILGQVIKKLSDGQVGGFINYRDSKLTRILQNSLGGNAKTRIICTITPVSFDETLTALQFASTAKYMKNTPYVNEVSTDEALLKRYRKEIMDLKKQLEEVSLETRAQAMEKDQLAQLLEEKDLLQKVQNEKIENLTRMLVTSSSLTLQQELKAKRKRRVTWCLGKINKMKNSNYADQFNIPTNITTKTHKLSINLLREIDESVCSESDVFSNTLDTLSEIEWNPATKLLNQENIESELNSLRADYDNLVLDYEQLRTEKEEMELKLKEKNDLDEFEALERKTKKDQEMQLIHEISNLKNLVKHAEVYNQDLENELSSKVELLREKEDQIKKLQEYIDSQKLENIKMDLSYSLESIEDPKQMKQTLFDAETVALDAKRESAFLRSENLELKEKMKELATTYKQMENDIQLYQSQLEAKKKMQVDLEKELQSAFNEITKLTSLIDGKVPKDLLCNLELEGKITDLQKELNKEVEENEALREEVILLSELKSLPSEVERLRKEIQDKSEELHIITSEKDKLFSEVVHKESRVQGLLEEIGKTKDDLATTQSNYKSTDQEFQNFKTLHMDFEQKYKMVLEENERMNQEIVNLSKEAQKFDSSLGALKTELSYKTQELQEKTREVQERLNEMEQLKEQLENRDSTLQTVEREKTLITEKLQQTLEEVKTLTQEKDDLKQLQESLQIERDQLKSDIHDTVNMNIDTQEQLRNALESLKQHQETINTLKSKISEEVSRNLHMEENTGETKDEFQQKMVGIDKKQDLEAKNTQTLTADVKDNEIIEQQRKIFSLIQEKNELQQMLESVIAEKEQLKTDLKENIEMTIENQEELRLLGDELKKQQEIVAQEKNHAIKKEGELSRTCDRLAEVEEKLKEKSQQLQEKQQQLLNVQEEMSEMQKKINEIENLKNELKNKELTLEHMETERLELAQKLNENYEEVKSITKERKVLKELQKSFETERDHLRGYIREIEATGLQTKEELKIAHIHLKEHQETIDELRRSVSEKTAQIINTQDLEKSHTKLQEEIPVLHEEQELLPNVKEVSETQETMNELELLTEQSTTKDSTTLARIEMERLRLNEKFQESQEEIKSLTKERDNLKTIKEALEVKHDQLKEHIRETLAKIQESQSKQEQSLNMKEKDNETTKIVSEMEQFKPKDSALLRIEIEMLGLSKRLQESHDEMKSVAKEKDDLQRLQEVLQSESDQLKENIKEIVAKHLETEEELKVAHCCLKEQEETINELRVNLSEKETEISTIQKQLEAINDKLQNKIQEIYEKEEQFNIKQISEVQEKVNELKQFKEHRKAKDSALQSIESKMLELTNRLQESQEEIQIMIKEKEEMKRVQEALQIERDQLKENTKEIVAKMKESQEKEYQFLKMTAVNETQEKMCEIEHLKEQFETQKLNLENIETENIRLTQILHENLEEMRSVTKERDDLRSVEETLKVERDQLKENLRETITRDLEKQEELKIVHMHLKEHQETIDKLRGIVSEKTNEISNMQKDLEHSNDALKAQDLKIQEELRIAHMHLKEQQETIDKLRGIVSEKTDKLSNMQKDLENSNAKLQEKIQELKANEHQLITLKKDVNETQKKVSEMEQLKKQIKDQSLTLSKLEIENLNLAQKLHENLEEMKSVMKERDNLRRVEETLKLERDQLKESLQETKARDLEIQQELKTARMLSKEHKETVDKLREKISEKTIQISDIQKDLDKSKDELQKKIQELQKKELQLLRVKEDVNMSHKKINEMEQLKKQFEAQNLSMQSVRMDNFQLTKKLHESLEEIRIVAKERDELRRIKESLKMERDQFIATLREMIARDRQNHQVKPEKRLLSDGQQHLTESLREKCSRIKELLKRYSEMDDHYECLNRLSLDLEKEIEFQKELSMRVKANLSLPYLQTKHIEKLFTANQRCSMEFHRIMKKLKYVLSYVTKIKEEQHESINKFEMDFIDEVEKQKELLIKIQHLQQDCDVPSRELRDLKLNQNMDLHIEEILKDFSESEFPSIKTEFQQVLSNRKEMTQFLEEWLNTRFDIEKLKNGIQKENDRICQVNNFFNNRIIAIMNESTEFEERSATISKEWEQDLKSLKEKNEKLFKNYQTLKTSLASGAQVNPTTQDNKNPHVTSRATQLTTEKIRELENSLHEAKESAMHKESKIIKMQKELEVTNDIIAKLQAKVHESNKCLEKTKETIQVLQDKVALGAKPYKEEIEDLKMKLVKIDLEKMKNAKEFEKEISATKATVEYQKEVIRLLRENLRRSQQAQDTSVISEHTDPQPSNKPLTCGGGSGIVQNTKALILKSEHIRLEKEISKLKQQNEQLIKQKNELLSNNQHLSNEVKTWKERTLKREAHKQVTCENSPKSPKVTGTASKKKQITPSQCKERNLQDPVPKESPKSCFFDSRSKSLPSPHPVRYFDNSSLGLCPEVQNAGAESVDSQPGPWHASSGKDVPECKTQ

inhibition [1]	inhibition [2]	inhibition [3]	inhibition [4]	inhibition (Homo sapiens)	Ki [5]	inhibition [6]	Compound
99.6%	4.3%	8.2%	7%				Cc1ccc(C(=O)N(CCCN)[C@@H](c2nc3cc(Cl)ccc3c(=O)n2Cc2ccccc2)C(C)C)cc1
99.4%	8.2%	12.8%	11%	Active	10 nM	Active	NC(=O)Nc1ccc(-c2ccc(C(F)(F)F)cc2)cc1F
99.3%	6.5%	8.9%	9%	Active	2.2 nM	Active	O=C1CCc2cc(-c3ccc(C(F)(F)F)cc3)ccc2N1
